Measurements as given in patent US20160257651A1, “NOVEL COMPOUND WITH ANTIBACTERIAL ACTIVITY” (priority 2013, published 2016).
Values after ≈ are worked out from the molar mass of the structure shown. Like-named read-outs stand apart in the source and are kept apart here.

Tests used:
[1] = test system: S. aureus FDA209P (ATCC 6538P); test: microbe, parasite or virus in culture; format: cell-based, Staphylococcus aureus; conditions: Staphylococcus aureus, ATCC 6538P / FDA209P / MSSA, quinolone-susceptible MSSA, ParC 80S, GyrA 84S, read-out: MIC
Procedure: (§1) Then, the cell suspension was diluted 500 times with CAMHB mentioned above.

S. aureus Mu50 = test: microbe, parasite or virus in culture; format: cell-based, Staphylococcus aureus; conditions: for MIC ratio (Mu50 MIC/FDA209P MIC): MIC for S. aureus Mu50 / MIC for S. aureus FDA209P; for MIC: S. aureus Mu50, quinolone-resistant MRSA, ParC S80F, GyrA S84L
Procedure: as §1

[2] = test system: Staphylococcus aureus ATCC29213 (MSSA); test: MIC, S. aureus categories (Test Example 3); format: cell-based; conditions: strain ATCC29213, MSSA, read-out: MIC
Procedure: (§2) The antibacterial activities of the compound J-131CP against Staphylococcus aureus strains belonging to the five categories of Staphylococcus aureus, i.e., MSSA, MRSA, community-acquired-infection type MRSA (CA-MRSA), VISA, and VRSA, were investigated.
(§3) The compound J-131CP and quinolones were prepared in the same manner as that of Test Example 1-1.
(§4) Cell suspensions were prepared in the same manner as that of Test Example 1-1 described in the section of measurement of MIC in Test Example 1-1, except that the strains mentioned in Table 6 were used as Staphylococcus aureus, and MICs of the compound J-131CP and quinolones as the control were determined for the strains in the same manner as that of Test Example 1-1. In Table 6, the amino acid substitution mutations in QRDR of the strains are underlined.

[3] = test system: Staphylococcus aureus BR2 (VISA); test: MIC, S. aureus categories (Test Example 3); format: cell-based
Procedure: as §2, §3, §4

[4] = test system: Staphylococcus aureus KSA36 (MRSA); test: MIC, S. aureus categories (Test Example 3); format: cell-based
Procedure: as §2, §3, §4

[5] = test system: Staphylococcus aureus MI (VISA); test: MIC, S. aureus categories (Test Example 3); format: cell-based
Procedure: as §2, §3, §4

[6] = test system: Staphylococcus aureus MW2 (CA-MRSA); test: MIC, S. aureus categories (Test Example 3); format: cell-based; conditions: Staphylococcus aureus; strain MW2, CA-MRSA; read-out: MIC
Procedure: as §2, §3, §4

[7] = test system: Staphylococcus aureus NCTC8325 (MSSA); test: MIC, S. aureus categories (Test Example 3); format: cell-based; conditions: Staphylococcus aureus, strain NCTC8325, MSSA
Procedure: as §2, §3, §4

[8] = test system: Staphylococcus aureus USA300FPR (CA-MRSA); test: MIC, S. aureus categories (Test Example 3); format: cell-based
Procedure: as §2, §3, §4

[9] = test system: Staphylococcus aureus VRS1 (VRSA); test: MIC, S. aureus categories (Test Example 3); format: cell-based
Procedure: as §2, §3, §4

[10] = test system: Staphylococcus aureus VRS3a (VRSA); test: MIC, S. aureus categories (Test Example 3); format: cell-based
Procedure: as §2, §3, §4

[11] = test system: Staphylococcus aureus VRS5 (VRSA); test: MIC, S. aureus categories (Test Example 3); format: cell-based
Procedure: as §2, §3, §4

E. faecalis 36-15747 = test: MIC against Enterococcus bacteria; format: cell-based; conditions: 3615747, ParC 80Ile
Procedure: (§5) Antibacterial activities of the compound J-131CP against Enterococcus bacteria (Enterococcus faecium and Enterococcus faecalis) were examined by the following methods.
as §3
(§6) Cell suspensions were prepared in the same manner as that of Test Example 1-1 described in the section of measurement of MIC in Test Example 1-1, except that the Enterococcus bacterium strains mentioned in Table 8 were used instead of Staphylococcus aureus, and MICs of the compound J-131CP and quinolones as control were determined for the strains in the same manner as that of Test Example 1-1 described in the section of measurement of MIC in Test Example 1-1. In Table 8, the amino acid substitution mutations in QRDR of the strains are underlined.

E. faecalis NCTC12201 = test: MIC against Enterococcus bacteria; format: cell-based; conditions: Enterococcus faecalis, NCTC 12201 / VRE, quinolone-susceptible, read-out: MIC
Procedure: as §5, §3, §6

E. faecalis NCTC12203 = test: MIC against Enterococcus bacteria; format: cell-based; conditions: NCTC 12203 / VRE, E. faecalis NCTC12203, VRE, read-out: MIC
Procedure: as §5, §3, §6

E. faecium NCTC12204 = test: MIC against Enterococcus bacteria; format: cell-based; conditions: NCTC 12204 / VRE, E. faecium NCTC12204, VRE, read-out: MIC
Procedure: as §5, §3, §6

E. faecium RPR10 = test: MIC against Enterococcus bacteria; format: cell-based; conditions: E. faecium RPR10, read-out: MIC
Procedure: as §5, §3, §6

S. pneumoniae BCLSP37 = test: MIC against pneumococcus, CAMHB with 5 mass % LHB; format: cell-based, Streptococcus pneumoniae; conditions: Streptococcus pneumoniae, BCLSP37, S. pneumoniae BCLSP37, PSSP, quinolone-resistant; ParC 79Phe, GyrA 85Lys; read-out: MIC
Procedure: (§7) The S. pneumoniae strains used for this test belong to any one of the categories of penicillin-susceptible pneumococcus (penicillin-susceptible Streptococcus pneumoniae, PSSP), penicillin-intermediate pneumococcus (penicillin-intermediate Streptococcus pneumoniae, PISP), and penicillin-resistant pneumococcus (penicillin-resistant Streptococcus pneumoniae, PRSP).
(§8) The lysed horse blood was prepared by adding sterilized water to horse sterile defibered blood (produced by Nippon Bio-Supp. Center) at a ratio of 1:1, subjecting the mixture to freezing and thawing 5 times, then centrifuging the mixture twice at 10,000 rpm for 20 minutes, and filtering the supernatant through a filter.
(§9) The S. pneumoniae strains mentioned in Table 11 were each cultured overnight at 37° C. on a blood agar medium as stationary culture. The blood agar medium was prepared by adding 5 mass % ovine sterile defibered blood (produced by Nippon Bio-Supp. Center) to a heart infusion agar medium (produced by EIKEN CHEMICAL). Each S. pneumoniae strain cultured overnight at 37° C. as stationary culture was further subcultured overnight at 37° C. on fresh blood agar medium as stationary culture. After completion of the culture, cells of each pneumococcus strain were collected with a swab, and suspended in physiological saline, and the suspension was adjusted with physiological saline to show absorbance of 0.08 to 0.13 at 625 nm as measured with an absorbance meter (produced by Amersham), and further diluted 200 times with CAMHB containing 5 mass % LHB.
(§10) In Table 11, the amino acid substitution mutations in QRDR of the strains are underlined.

S. pneumoniae KBSP11 = test: MIC against pneumococcus, CAMHB with 5 mass % LHB; format: cell-based, Streptococcus pneumoniae; conditions: Streptococcus pneumoniae
Procedure: as §7, §8, §9, §10

[12] = S. pneumoniae KBSP11, PRSP, quinolone-susceptible, read-out: MIC

| Compound | MIC [1] [µg/mL] | MIC ratio (Mu50 MIC/FDA209P MIC) (S. aureus Mu50) | MIC [2] [µg/mL] | MIC [3] [µg/mL] | MIC [4] [µg/mL] | MIC [5] [µg/mL] | MIC [6] [µg/mL] | MIC ([7]; read-out: MIC) [µg/mL] | MIC [8] [µg/mL] | MIC [9] [µg/mL] | MIC [10] [µg/mL] | MIC [11] [µg/mL] | MIC (E. faecalis 36-15747) [µg/mL] | MIC (E. faecalis NCTC12201) [µg/mL] | MIC (E. faecalis NCTC12203) [µg/mL] | MIC (E. faecium NCTC12204) [µg/mL] | MIC (E. faecium RPR10) [µg/mL] | MIC (S. pneumoniae BCLSP37) [µg/mL] | MIC (S. pneumoniae KBSP11; [12]) [µg/mL] | MIC (S. aureus Mu50) [µg/mL] | other results |
| --- | --- | --- | --- | --- | --- | --- | --- | --- | --- | --- | --- | --- | --- | --- | --- | --- | --- | --- | --- | --- | --- |
| CCn1cc(C(=O)O)c(=O)c2cc(F)c(N3CCNCC3)cc21 [NOR, norfloxacin] | 0.25 (≈ 0.783 µM) | 512 | 1 (≈ 3.13 µM) | 64 (≈ 200 µM) | > 128 | 128 (≈ 401 µM) | 0.5 (≈ 1.57 µM) | 1 (≈ 3.13 µM) | 32 (≈ 100 µM) | > 128 | 128 (≈ 401 µM) | > 128 | 16 (≈ 50.1 µM) | 2 (≈ 6.26 µM) | 4 (≈ 12.5 µM) | 4 (≈ 12.5 µM) | 2 (≈ 6.26 µM) | 64 (≈ 200 µM) | 4 (≈ 12.5 µM) |  |  |
| CC1COc2c(N3CCN(C)CC3)c(F)cc3c(=O)c(C(=O)O)cn1c23 (centres unmarked) [OFX, ofloxacin] | 0.125 (≈ 0.346 µM) | 128 | 0.25 (≈ 0.692 µM) | 64 (≈ 177 µM) | > 128 | 128 (≈ 354 µM) | 0.5 (≈ 1.38 µM) | 0.25 (≈ 0.692 µM) | 16 (≈ 44.3 µM) | 32 (≈ 88.6 µM) | 32 (≈ 88.6 µM) | > 128 | 4 (≈ 11.1 µM) | 2 (≈ 5.53 µM) | 4 (≈ 11.1 µM) | 4 (≈ 11.1 µM) | 2 (≈ 5.53 µM) | 32 (≈ 88.6 µM) | 0.5 (≈ 1.38 µM) | 16 (≈ 44.3 µM) | MIC (S. aureus Mu50; Staphylococcus aureus, MRSA): 8 to 128 µg/mL (≈ 22.1 to 354 µM) |
| C[C@@H]1CN(c2c(F)c(N)c3c(=O)c(C(=O)O)cn(C4CC4)c3c2F)C[C@H](C)N1 [SPX, sparfloxacin] | ≤ 0.06 | ≧256 | ≤ 0.06 | 32 (≈ 81.5 µM) | 128 (≈ 326 µM) | 32 (≈ 81.5 µM) | ≤ 0.06 |  | 8 (≈ 20.4 µM) | 8 (≈ 20.4 µM) | 16 (≈ 40.8 µM) | 128 (≈ 326 µM) | 0.5 (≈ 1.27 µM) | 0.5 (≈ 1.27 µM) | 1 (≈ 2.55 µM) | 1 (≈ 2.55 µM) | 0.13 (≈ 0.331 µM) | > 32 | 0.25 (≈ 0.637 µM) | 16 (≈ 40.8 µM) | MIC (S. aureus Mu50; Staphylococcus aureus, MRSA): 8 to 128 µg/mL (≈ 20.4 to 326 µM); MIC [7]: 0.125 µg/mL (≈ 0.319 µM) |
| NC1CCN(c2nc3c(cc2F)c(=O)c(C(=O)O)cn3-c2ccc(F)cc2F)C1 (centres unmarked) [TSX, tosufloxacin] | ≤ 0.06 | ≧2048 | ≤ 0.06 | 32 (≈ 79.1 µM) | > 128 | 16 (≈ 39.6 µM) | ≤ 0.06 | ≤ 0.06 | 16 (≈ 39.6 µM) | 4 (≈ 9.89 µM) | > 128 | > 128 | 2 (≈ 4.95 µM) | 0.25 (≈ 0.618 µM) | 4 (≈ 9.89 µM) | 4 (≈ 9.89 µM) | 4 (≈ 9.89 µM) | 16 (≈ 39.6 µM) |  |  | MIC (S. pneumoniae KBSP11; PRSP): 0.125 µg/mL (≈ 0.309 µM) |
